Data on 4 compounds can be found in paper PMC8840560, “Naphthoquine: A Potent Broad-Spectrum Anti-Coronavirus Drug In Vitro” (Molecules, 2022).

One series concerns HCoV-229E. The series is described as follows: CPE inhibition assay, HCoV-229E-infected Huh7 cells. The following applies: for IC50: Human coronavirus 229E. The class given is cell-based.
Another series has as its system HCoV-OC43. The series is described as follows: CPE inhibition assay, HCoV-OC43-infected H460 cells. The series is classed as cell-based. The following applies: for IC50: Betacoronavirus 1, NCI-H460, HCoV-OC43 (100 TCID50) in H460 cells, CPE, about 72 h, Reed-Muench.
Series [1] concerns SARS-CoV-2. The series is described as follows: Anti-SARS-CoV-2 activity in Vero cells by qRT-PCR of viral RNA in supernatant. The following applies: Severe acute respiratory syndrome coronavirus 2; SARS-CoV-2 (100 TCID50) in Vero cells, qRT-PCR of supernatant RNA at 48 h, 12 h pretreatment. The class given is cell-based.
For series [2], the system named is SARS-CoV-2. Description: Time-of-addition assay against SARS-CoV-2 in Vero cells. To be noted: 10 µM, qRT-PCR at 48 h. The series is classed as cell-based.
Series [3] deals with SARS-CoV-2. Also on record: method as in PMID 32194981, PMID 33995308. The following applies: in vitro; read-out: IC50 anti-SARS-CoV-2 in vitro; cited from earlier work.
The nature of series [4]: in vitro. The following applies: human, Huh7 cells.
Series [5] in a line: in vitro. To be noted: human, H460 cells.

Molecules are shown by their SMILES. Like-named read-outs stand apart in the source and are kept apart here.

One may read the IC50 as the concentration at which inhibition is half-maximal. Take `CCN(CC)CCCC(C)Nc1ccnc2cc(Cl)ccc12` (stereo not shown) [CQ, Chloroquine phosphate]: the IC50 was 8.74 ± 7.27 µM with HCoV-229E (Huh-7, 48 h); 3.16 ± 0.6 µM in the series on HCoV-OC43; 5.85 ± 0.97 µM in the series on SARS-CoV-2 [1]; less than 10 µM with SARS-CoV-2 [3]. Besides, the “inhibition of SARS-CoV-2 infection at all time points (full-time, first 3 h, last 46 h)” value with SARS-CoV-2 [2] is “effectively inhibit SARS-CoV-2 infection at all time points”.
As to `CCN(CCO)CCCC(C)Nc1ccnc2cc(Cl)ccc12` (stereo not shown) [HCQ, hydroxychloroquine], in the series on SARS-CoV-2 [3], the IC50 is less than 10 µM.
For orientation: CC50 means the concentration giving 50% cytotoxicity. Read a low CC50 as greater toxicity to the cells. As for `NC(=O)c1ncn([C@@H]2O[C@H](CO)[C@@H](O)[C@H]2O)n1` [RBV, Ribavirin], the SI in the series with HCoV-229E came out at 26.54; in the series on HCoV-OC43, 15.34. For the same compound, the IC50 in the series with HCoV-229E (Huh-7, HCoV-229E (100 TCID50) in Huh7 cells, CPE, about 48 h, Reed-Muench, read-out: IC50) is 15.4 ± 5.57 µM; with HCoV-OC43, 20.7 ± 7.86 µM. The CC50 at 2 days in the series “in vitro [4]” is 409 µM; in “in vitro [5]”, 318 µM.
As for `OC(c1cc(C(F)(F)F)nc2c(C(F)(F)F)cccc12)C1CCCCN1` (stereo not shown) [mefloquine], the IC50 with SARS-CoV-2 [3] is less than 10 µM.
